Measurements taken from US20140171431A1, “AZOLE HETEROCYCLIC COMPOUND, PREPARATION METHOD, PHARMACEUTICAL COMPOSITION AND USE” (priority 2011, published 2014).
Where two headings read alike, the source gives them in different places.

Assays:
Lp-PLA2 in human serum = biological target: T1, Lp-PLA2 in human serum (Homo sapiens, UniProt Q13093); experiment: In vitro inhibitory activity towards the enzyme Lp-PLA2 in human serum, [3H]PAF substrate; type: biochemical; conditions: for inhibition at 0.01 µM: 10 nM; for inhibition at 0.1 µM: 100 nM
T1 construct: from tissue
T1 sequence (Q13093 22-441): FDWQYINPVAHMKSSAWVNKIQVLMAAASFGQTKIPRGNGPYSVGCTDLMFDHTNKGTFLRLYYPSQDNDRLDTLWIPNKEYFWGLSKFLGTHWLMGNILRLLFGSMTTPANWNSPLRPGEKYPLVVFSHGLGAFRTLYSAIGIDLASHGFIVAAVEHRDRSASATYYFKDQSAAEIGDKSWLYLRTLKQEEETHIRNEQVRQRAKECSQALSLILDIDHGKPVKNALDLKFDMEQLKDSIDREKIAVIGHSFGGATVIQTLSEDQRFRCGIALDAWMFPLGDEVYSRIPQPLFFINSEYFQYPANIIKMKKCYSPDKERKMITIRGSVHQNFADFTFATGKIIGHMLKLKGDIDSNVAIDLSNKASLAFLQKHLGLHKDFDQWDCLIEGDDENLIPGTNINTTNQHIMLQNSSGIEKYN
Protocol: The activities of compounds were measured using [^3H] labeled platelet activating factor ([^3H]PAF, Perkinelmer, Lot NET910) as the substrate. The reaction was carried out in a system containing 50 mmol/l HEPES and 150 mmol/l NaCl (pH 7.4) in a total volume of 200 μl. First, 10 μL human plasma and 10 μl DMSO solution of the test compound were added to the system and preincubated for 10 min at 37° C. Then 20 nM [^3H]PAF was added as listed in table 1 to start the reaction and incubated for a further 10 min at 37° C. After that, 600 μl of CHCl3/MeOH (2:1) was added and the resulting mixture was mixed with vortex. After settled for a while, the mixture was centrifugated at 12000×g for 15 min. The supernatant was transferred to a new tube and 200 μl of CHCl3 was added and mixed by vortexing. The mixture was settled or centrifugated for 2 min. A 100 μl portion of the supernatant was then collected for radioactivity intensity measurement.

Lp-PLA2 in rabbit serum = biological target: T2, Lp-PLA2 in rabbit serum (Oryctolagus cuniculus, UniProt G1SE06); experiment: In vitro inhibitory activity towards the enzyme Lp-PLA2 in rabbit serum, [3H]PAF substrate; type: biochemical; conditions: for inhibition at 0.1 µM: 100 nM
T2 construct: from tissue; host or cells: rabbit serum
T2 sequence (G1SE06 22-423): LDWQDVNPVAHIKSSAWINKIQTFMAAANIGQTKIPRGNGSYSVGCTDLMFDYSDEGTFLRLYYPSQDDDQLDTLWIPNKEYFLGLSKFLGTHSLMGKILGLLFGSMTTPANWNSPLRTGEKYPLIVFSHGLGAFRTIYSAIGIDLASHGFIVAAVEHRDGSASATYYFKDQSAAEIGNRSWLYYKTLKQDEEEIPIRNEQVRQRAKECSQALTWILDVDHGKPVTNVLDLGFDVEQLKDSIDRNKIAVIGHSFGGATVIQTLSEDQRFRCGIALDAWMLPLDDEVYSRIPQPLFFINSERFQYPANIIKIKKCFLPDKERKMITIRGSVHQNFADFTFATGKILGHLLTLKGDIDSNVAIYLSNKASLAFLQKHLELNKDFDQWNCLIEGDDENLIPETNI

[1] = human serum, read-out: inhibition, %
[2] = rabbit serum, read-out: inhibition, %
[3] = read-out: inhibitory rate towards the human serum derived Lp-PLA2 enzyme
[4] = read-out: inhibitory rate towards the rabbit serum derived Lp-PLA2 enzyme

Row | SMILES | inhibition at 0.01 µM (Lp-PLA2 in human serum; [1]) [%] | inhibition at 0.1 µM (Lp-PLA2 in human serum; human serum) [%] | inhibition at 0.1 µM (Lp-PLA2 in rabbit serum; [2]) [%] | inhibition at 0.01 µM (Lp-PLA2 in human serum; [3]) [%] | inhibition at 0.1 µM (Lp-PLA2 in rabbit serum; [4]) [%] | inhibition at 1 µM (Lp-PLA2 in rabbit serum; 1 μM, rabbit serum) [%]
1 | CN(C)Cc1nnc(Cn2c(SCc3ccc(F)cc3)nc(=O)c3c2CCC3)n1Cc1ccc(-c2ccc(C(F)(F)F)cc2)cc1 [Example 75, 1-((5-((dimethylamino)methyl)-4-((4′-(trifluoromethyl)biphenyl-4-yl)methyl)-4H-1,2,4-triazol-3-yl)methyl)-2-(4-fluorobenzylthio)-6,7-dihydro-1H-cyclopenta[d]pyrimidin-4(5H)-one] | 85 | 97 | 88.3 |  |  | 
2 | CCN1CCCC1CNCc1nnc(Cn2c(SCc3ccc(F)cc3)nc(=O)c3c2CCC3)n1Cc1ccc(-c2ccc(C(F)(F)F)cc2)cc1 (racemic) [Example 83, (±)-1-((5-(((1-ethylpyrrolidin-2-yl)methylamino)methyl)-4-((4′-(trifluoromethyl)biphenyl-4-yl)methyl)-4H-1,2,4-triazol-3-yl)methyl)-2-(4-fluorobenzylthio)-6,7-dihydro-1H-cyclopenta[d]pyrimidin-4(5H)-one] | 81 | 95 | 93 | > 80 | > 90 | 
3 | O=c1nc(SCc2ccc(F)cc2)n(Cc2ncn(Cc3ccc(-c4ccc(C(F)(F)F)cc4)cc3)n2)c2c1CCC2 [Example 61, 2-(4-fluorobenzylthio)-1-((1-((4′-(trifluoromethyl)biphenyl-4-yl)methyl)-1H-1,2,4-triazol-3-yl)methyl)-6,7-dihydro-1H-cyclopenta[d]pyrimidin-4(5H)-one] | 59 | 91 | 61 |  |  | 
4 | CCCc1nnc(Cn2c(SCc3ccc(F)cc3)nc(=O)c3c2CCC3)n1Cc1ccc(-c2ccc(C(F)(F)F)cc2)cc1 [Example 66, 2-(4-fluorobenzylthio)-1-((5-propyl-4-((4′-(trifluoromethyl)biphenyl-4-yl)methyl)-4H-1,2,4-triazol-3-yl)methyl)-6,7-dihydro-1H-cyclopenta[d]pyrimidin-4(5H)-one] | 88 | 98 | 88 |  |  | 
5 | CN1CCN(Cc2nnc(Cn3c(SCc4ccc(F)cc4)nc(=O)c4c3CCC4)n2Cc2ccc(-c3ccc(C(F)(F)F)cc3)cc2)CC1 [Example 107, 2-(4-fluorobenzylthio)-1-((5-((4-methylpiperazin-1-yl)methyl)-4-((4′-(trifluoromethyl)biphenyl-4-yl)methyl)-4H-1,2,4-triazol-3-yl)methyl)-6,7-dihydro-1H-cyclopenta[d]pyrimidin-4(5H)-one] | 70 | 91 | 68 |  |  | 
6 | CN(C)CCN(C)Cc1onc(Cn2c(SCc3ccc(F)cc3)nc(=O)c3c2CCC3)c1Cc1ccc(-c2ccc(C(F)(F)F)cc2)cc1 [Example 158, 1-((5-(((2-(dimethylamino)ethyl)(methyl)amino)methyl)-4-((4′-(trifluoromethyl)biphenyl-4-yl)methyl)isoxazol-3-yl)methyl)-2-(4-fluorobenzylthio)-6,7-dihydro-1H-cyclopenta[d]pyrimidin-4(5H)-one] | 98 |  | 98 | > 80 | > 90 | 
7 | CN(C)Cc1cnc(Cn2c(SCc3ccc(F)cc3)nc(=O)c3c2CCC3)n1Cc1ccc(-c2ccc(C(F)(F)F)cc2)cc1 [Example 46, 1-((5-((dimethylamino)methyl)-1-((4′-(trifluoromethyl)biphenyl-4-yl)methyl)-1H-imidazol-2-yl)methyl)-2-(4-fluorobenzylthio)-6,7-dihydro-1H-cyclopenta[d]pyrimidin-4(5H)-one] | 75 | 89 | 87.1 |  |  | 97.2
